Data from US20260109721A1, “IONIZABLE CATIONIC LIPIDS INCORPORATING SILICON: SYNTHESIS AND LNP FORMULATION” (priority 2023, published 2026).
Like-named read-outs stand apart in the source and are kept apart here.

What was measured:
[1] = Encapsulation efficiency of loaded LNPs, RiboGreen RNA assay (Method A); assay type: physicochemical
Experimental: (§1) The synthesized lipids were tested in term of in vitro transfection efficacy and toxicity on HeLa cells. In order to perform the mentioned biological tests, appropriate LNPs had to be formulated from the synthesized lipids. The formulation technique was different in Method A and B. The particle size, polydispersity index (PDI) and zeta potential of resulting LNPs were determined by means of Dynamic Light Scattering technique (DLS). Prior to biological testing the encapsulation efficiency (EE) of the loaded LNPs was determined by using RiboGreen RNA assay. In case of Method A Luc mRNA while in case of Method B GFP mRNA was transfected into the cells. In parallel with the transfection experiments, toxicity of the investigated LNPs was determined, in case of Method A resazurin assay while in case of Method B MTT assay was used. Additionally, the toxicity of the lipids was investigated on HepG2 cells and IC50 values were determined.
• 1. Preparation of sample stock solutions: In the top row of the 96-well plate (Row A in the plate), add 297 μL of TE buffer pH 7.4 (see Table 1) to a single well for each sample plus a single well for a PBS blank using a multichannel pipette.
• 2. Add 3 μL of sample (at 0.5 mg/ml) to these wells for a final volume of 300 μL. Add 3 μL of PBS to the blank well. Pipette to mix. This is your stock solution for each sample. The final RNA concentration of these stock solutions should be approximately 4-7 μg/mL. • 3. mRNA-LNP sample setup: • a. Add 50 μL of TE buffer pH 7.5 to the two wells directly below each sample (Rows B and C in the plate). • b. Add 50 μL of sample stock solution from Row A into the wells in Rows B and C (this assay is run in duplicate. All liquid handling should be done using a multichannel pipette). • c. Add 50 μL of Triton buffer to the wells in Rows D and E (in the plate) below each sample. • d. Add 50 μL of sample stock solution from Row A into the wells in Rows D and E. • 4. RiboGreen RNA standard curve setup: Dilute the RNA standard to produce an RNA stock at a final concentration of 20 μg/mL in TE buffer pH 7.4. The final volume should be 150 μL. Set up a standard curve (in duplicate) as using the RNA stock (20 μg/mL siRNA), TE buffer pH 7.5, and Triton X-100 buffer according the Table 2 and Table 3 below.
• 5. Once samples and standard curve are plated, incubate the plate at 37° C. for 10 min to lyse mRNA-LNP in the presence of Triton X-100 buffer. • 6. Meanwhile, prepare RiboGreen Solution: Sum the total number of sample wells and standard curve wells. Add three to this number, and multiply the total by 100. This is the total volume, in μL, of RiboGreen Solution needed for this assay. In a 15 mL RNAse-free Falcon tube, dilute the RiboGreen Reagent 1:100 into TE buffer pH 7.5 to the total volume calculated. • 7. Addition of RiboGreen Solution and sample readings: Remove a 96-well plate from 37° C. incubator; let it cool to room temperature as RiboGreen binding is somewhat temperature dependent. Add 100 μL of RiboGreen Solution to each well. Pop any air bubbles with a needle. Read using fluorescent plate reader (excitation=480, emission=525). • 8. Sample analysis: Use the data generated by the RiboGreen standard curve to calculate the concentration of mRNA. Transfection Efficiency with Luciferase-mRNA (Method A)

[2] = LNP size, PDI and zeta potential by Dynamic Light Scattering (Method A); assay type: physicochemical; conditions: LNP formulated with the lipid, DLS
Experimental: as §1
• 1. If needed, prepare stock solutions by solving known amounts of lipid powder into an appropriate solvent. The recommended solvent is ethanol and the recommended concentration is typically in the range 10-50 mM. Higher concentrations are preferred to allow flexibility on mRNA-LNP concentration. • 2. Remove the lipid stock solutions from the −20° C. freezer. For long-term storage, −80° C. is used. • 3. Check the vials for precipitation, DOPE (CAS #4004-05-1) (20 mM) and DSPE-PEG (CAS #474922-26-4) (5 mM) may need a 5-30 minute incubation step at 37° C. with intermittent vortexing to resuspend all contents. […] As a last resort, lipids may be heated to 50° C. to resuspend, time should be kept as short as possible to prevent oxidation or other modifying or degradative processes. • 4. Mix the lipids by vortexing for 2 minutes. • 5. […] Cooling the solution prevent excessive evaporation of ethanol or similar solvents upon opening. • 6. Meanwhile, thaw the RNA samples, including the latest SecNLuc control, by inserting the frozen tube in a room temperature aluminium block. • 7. Prepare for each LNP-formulation with identical mRNA component, an RNA master mix according to Table 1 below in a fresh tube. Use of a master mix allows more precise comparison of lipid formulations relative to each other. Split the master mix over a number of fresh tubes equal to the number of samples+controls. Each tube contains 375 μl of mRNA in 10 mM Citrate pH 4.0. • 8. Prepare for each LNP formulation with identical lipid composition a Lipid master mix according to Table 1 below in a fresh tube, exclude the lipid of interest. Use of a master mix allows more precise comparison of the novel ionizable lipid relative to each other. Split the master mix over a number of fresh tubes equal to the number of samples+controls. Each tube contains 65.5 μl of lipid master mix. • 9. Add the ionizable lipid of interest to the equally divide lipid master mix. Mix well by pipetting up and down. Label the tube according to the ionizable lipid used. • 10. Power on the L1 FM (L1 Formulation Machine uses 2 high-speed syringe pumps to mix lipids in organic solvents with mRNA in acidic aquous solution to generate well-defined LNPs. The microfluidic mixing chip involves a dean-type structure performing the high-efficiency mixing at a total flow rate (TFR) of around 12 ml/min at a 3:1 mixing ratio) and allow it to do a calibration of motor positions.
• 18. Fill a fresh syringe (C) through a blunt 18G stainless steel needle with the previously prepared RNA mixture of step 6. The volume should be approximately 85% of total formulation volume+25 μl (dead-volume). Make sure to remove all air bubbles by tapping. • 19. Fill a fresh syringe (D) through a blunt 18G stainless steel needle with the Lipid master mix. The volume should be approximately […] of total formulation volume+25 μl (dead-volume). Again, Make sure to remove all bubbles. • 20. Attach the syringes in the correct orientation, syringe A on the left and syringe B on the right • 21.

[3] = encapsulation efficiency of mRNA-loaded LNP, Method A, RiboGreen

Structure (SMILES) | EE (%) [1, 3] | PDI [2] | Size (nm) [2] | Zeta potential (mV) [2] | EE (%) [1]
CCCCC/C=C\C/C=C\CCCCCCCCOC(CCCCCCC/C=C\C/C=C\CCCCC)O[Si](C)(C)OCCCCCCN(C)Cc1cn(C2[C@H](O)O[C@H](CO)[C@@H](O)[C@@H]2O)nn1 (stereo partly drawn) [Example 68, (4R,5S,6R)-3-(4-((22Z,25Z)-12-((8Z,11Z)-heptadeca-8,11-dien-1-yl)-2,10,10-trimethyl-9,11,13-trioxa-2-aza-10-silahentriaconta-22,25-dien-1-yl)-1H-1,2,3-triazol-1-yl)-6-(hydroxymethyl)tetrahydro-2H-pyran-2,4,5-triol] | 88% | 0.081 | 109.9 nm | −6.380 mV | 
CCCCC/C=C\C/C=C\CCCCCCCCOC(CCCCCCC/C=C\C/C=C\CCCCC)O[Si](C)(C)OCCCCCCN1CCN(CCCCCCO[Si](C)(C)OC(CCCCCCC/C=C\C/C=C\CCCCC)OCCCCCCCC/C=C\C/C=C\CCCCC)CC1 (centres unmarked) [Example 70, 1,4-bis((20Z,23Z)-10-((8Z,11Z)-heptadeca-8,11-dien-1-yl)-8,8-dimethyl-7,9,11-trioxa-8-silanonacosa-20,23-dien-1-yl)piperazine] | 81% | 0.061 | 171.4 nm | −10.47 mV | 
CCCCC/C=C\C/C=C\CCCCCCCCOC(CCCCCCC/C=C\C/C=C\CCCCC)O[Si](C)(C)OCCCCCCN(CCO)CCN(CCO)CCCCCCO[Si](C)(C)OC(CCCCCCC/C=C\C/C=C\CCCCC)OCCCCCCCC/C=C\C/C=C\CCCCC (centres unmarked) [Example 71, (26Z,29Z)-16-((8Z,11Z)-heptadeca-8,11-dien-1-yl)-3-((20Z,23Z)-10-((8Z,11Z)-heptadeca-8,11-dien-1-yl)-8,8-dimethyl-7,9,11-trioxa-8-silanonacosa-20,23-dien-1-yl)-6-(2-hydroxyethyl)-14,14-dimethyl-13,15,17-trioxa-3,6-diaza-14-silapentatriaconta-26,29-dien-1-ol] | 84% | 0.103 | 166.6 nm | −11.09 mV | 
CCCCCCCC/C=C\CCCCCCCC(OCC(CCCCCCCC)SCCCCC)O[Si](C)(C)OCCCCCCN(CCO)CCO (centres unmarked) [Example 72, (Z)-13-(heptadec-8-en-1-yl)-3-(2-hydroxyethyl)-11,11-dimethyl-16-octyl-10,12,14-trioxa-17-thia-3-aza-11-siladocosan-1-ol] | 87% | 0.17 | 84.37 nm | −14.24 mV | 
CCCCCCCC/C=C\CCCCCCCC(OCC(CCCCCCCC)SCCCCCCCCCC)O[Si](C)(C)OCCCCCCN(CCO)CCO (centres unmarked) [Example 73, (Z)-13-(heptadec-8-en-1-yl)-3-(2-hydroxyethyl)-11,11-dimethyl-16-octyl-10,12,14-trioxa-17-thia-3-aza-11-silaheptacosan-1-ol] | 87% | 0.16 | 86.3 nm | −17.46 mV | 
CCCCCCCC/C=C\CCCCCCCC(OCCCCCCCCCCCC1CCCCC1)O[Si](C)(C)OCCCCCCN(CCO)CCO (centres unmarked) [Example 74, (Z)-25-cyclohexyl-13-(heptadec-8-en-1-yl)-3-(2-hydroxyethyl)-11,11-dimethyl-10,12,14-trioxa-3-aza-11-silapentacosan-1-ol] | 87% | 0.19 | 73.11 nm | −9.76 mV | 
CCCCCCCC/C=C\CCCCCCCC(OCCC(C)CCCC(C)CCCC(C)CCCC(C)C)O[Si](C)(C)OCCCCCCN(CCO)CCO (centres unmarked) [Example 75, (Z)-13-(heptadec-8-en-1-yl)-3-(2-hydroxyethyl)-11,11,17,21,25,29-hexamethyl-10,12,14-trioxa-3-aza-11-silatriacontan-1-ol] | 89% | 0.18 | 76.35 nm | −13.40 mV | 
CCCCCCCC/C=C\CCCCCCCC(OCCCCCCCCCCCCCCC(C)C)O[Si](C)(C)OCCCCCCN(CCO)CCO (centres unmarked) [Example 76, (Z)-13-(heptadec-8-en-1-yl)-3-(2-hydroxyethyl)-11,11,29-trimethyl-10,12,14-trioxa-3-aza-11-silatriacontan-1-ol] | 80% | 0.2 | 108.4 nm | −19.39 mV | 
CCCCC/C=C\C/C=C\CCCCCCCCOC(CCCCCCC/C=C\C/C=C\CCCCC)O[Si](C)(C)OCCCCCCN(C)[C@H](CO)Cc1ccccc1 (stereo partly drawn) [Example 77, (2S,23Z,26Z)-2-benzyl-13-((8Z,11Z)-heptadeca-8,11-dien-1-yl)-3,11,11-trimethyl-10,12,14-trioxa-3-aza-11-siladotriaconta-23,26-dien-1-ol] | 85% | 0.05 | 90.59 nm | −10.95 mV | 
CCCCCCCC/C=C\CCCCCCCCOC(CCCCCCC/C=C\CCCCCCCC)O[Si](C)(C)OCCCCCCN(C)[C@H](CO)Cc1ccccc1 (stereo partly drawn) [Example 78, (2S,Z)-2-benzyl-13-((Z)-heptadec-8-en-1-yl)-3,11,11-trimethyl-10,12,14-trioxa-3-aza-11-siladotriacont-23-en-1-ol] | 87% | 0.10 | 92.14 nm | −19.77 mV | 
CCCCC/C=C\C/C=C\CCCCCCCCOC(CCCCCCC/C=C\C/C=C\CCCCC)O[Si](C)(C)OCCCCCCN(C)C (centres unmarked) [Example 79, (20Z,23Z)-10-((8Z,11Z)-heptadeca-8,11-dien-1-yl)-N,N,8,8-tetramethyl-7,9,11-trioxa-8-silanonacosa-20,23-dien-1-amine] |  | 0.09 | 102.1 nm | −2425 mV | 83%
